From patent publication US20240352066A1, “ANTIMICROBIAL COMPOUNDS AND THE METHOD OF USE” (priority 2021, published 2024)
≈ marks a conversion by molar mass, not a printed value. Where a SMILES comes first, the peptide text is derived from it. [ ]: non-standard residue; d: D form. N(tridecyl)Gly = CCCCCCCCCCCCCNCC(=O)O; N(4-F-Bzl)Gly = O=C(O)CNCc1ccc(F)cc1; Gly(N-2-aminoethyl) = NCCNCC(=O)O; Nspe = C[C@H](NCC(=O)O)c1ccccc1; Nlys = NCCCCNCC(=O)O

Columns and labels:
[1] = Mammalian cytotoxicity, MTT, HepG2; type: cell-based, human; settings: human, HepG2 hepatocellular carcinoma cells
Protocol: Hepatocellular carcinoma (HepG2), mouse fibroblast (3T3), human lung (HPL1A), and human keratinocyte (HaCat) cells were cultured in Dulbecco modified eagle media (DMEM) containing 10% fetal bovine serum (FBS) and 1% penicillin, streptomycin, and glutamine (PSG) at 37° C. and 5% CO2. Cells were collected and adjusted to […] to 4×10^5 cells/mL in phenol-red free DMEM and plated (100 μL) 96 well plates. 2-fold serial dilutions of 10× peptoid (11.1 μL) were added to each well in triplicate. Water (vehicle) was used as a negative control. Plates were incubated at 37° C. in 5% CO2 for 72 hours. Thiazolyl blue tetrazolium bromide (MTT) was added to each well (5 mg/mL; 20 μL) and incubated for 3 hours. Media was removed, DMSO (100 μL) was added, and plates were incubated at 37° C. for 10 minutes. Plates were read on a SpectraMax M5 plate reader (Abs. 570 nm). The concentration of compound resulting in a 50% reduction in growth compared to control (toxicity dose 50%; TD50) was determined using GraFit. This procedure was repeated three times on separate days.
Cytotoxicity against HepG2 hepatocellular carcinoma cells was done as previously described (Green et al. ACS infectious diseases, (2022); Corson et al. ACS medicinal chemistry letters 7 12, 1139-1144 (2016)). HepG2 cells were maintained in culture in T-75 flasks using Dulbecco's Modified Eagle's Media (DMEM) with phenol red pH indicator and supplemented with 10% fetal bovine serum (FBS) and 1% penicillin, streptomycin, and glutamine (PSG). The cells were incubated at 37° C. and 5% CO2 in a humidified incubator until desired confluency was achieved. The media was removed from the flask, and the cells were washed 1× with 10 mL of phosphate-buffered saline (PBS; 11.8 mM phosphate, 140.4 mM NaCl; pH 7.4) which was then discarded. To remove the adhered cells from the flask, 2 mL of trypsin was added, and the cells were incubated for 10 minutes. To quench the trypsin, 8 mL of phenol red-free DMEM with 10% FBS and 1% PGS was added, and the cell solution was transferred to a 15 mL conical tube. After the cells were pelleted by centrifugation at 1000 rpm for 5 minutes, the supernatant was poured off and cells resuspended in the volume of phenol red-free media needed for the assay. Cell concentration was determined by counting with a hemocytometer, and the solution was diluted with media until a concentration of 1×10^5 cells/mL was achieved. A 100 μL aliquot of cell solution was added to each well of a 96-well plate, apart from the 3 wells used for a media control. Cells were incubated for 2-3 hours at 37° C. and 5% CO2 until cells were adherent.
Compound stocks of 20 mg/mL were used to prepare 2-fold serial dilutions of each compound in sterile water, giving final concentrations of 200, 100, 50, 25, 12.5, 6.25, 3.13 and 1.56 μg/mL. 11.1 μL of prepared compound solutions was added to the appropriate wells in triplicate. A negative vehicle control of sterile water, as well as the aforementioned media control, were used. The plates were incubated for 72 hours at 37° C. and 5% CO2. After incubation, 20 μL of 5 mg/mL 3-(4,5-dimethylthiazol-2-yl)-2,5-diphenyltetrazolium bromide (MTT) in water was added to each well. The plate was incubated for 3 hours at 37° C. and 5% CO2. Media was removed from each well using a sterile glass Pasteur pipette. 100 μL of DMSO was added to each well and incubated for 15 minutes at 37° C. Absorbance was read at 570 nm using a SpectraMax M5 Plate Reader. This MTT assay was performed in biological duplicate unless discrepant results were observed. If this was the case, the assay was performed in biological triplicate for further verification. The reported value is the average of biological replicates with standard deviation.

[2] = tested on: human red blood cells (hRBC); assay: Hemolytic activity against human red blood cells; type: cell-based; settings: Example 2; same donor sample of hRBCs
Protocol: Hemolytic activity was determined using single donor human red blood cells (hRBC). hRBCs were washed with PBS and centrifuged (1000 RPM; 10 minutes) three times, resuspended in PBS and aliquoted (100 μL) in 96 well plates. 2-fold serial dilutions of 10× peptoid final concentrations in PBS were prepared and added to wells in triplicate. PBS was used as a vehicle control and 1% Triton X-100 as a positive control. Plates were incubated for 1 hour (37° C.; 5% CO2) then centrifuged (1000 RPM; 10 minutes) and supernatant was diluted 1:20 into PBS in a new 96-well plate. Plates were read on a SpectraMax M5 plate reader (Abs. 405 nm). Percent hemolysis was determined by the following equation: […]
GraFit was used to determine concentrations at 50% hemolytic activity (HC50) and the Hill coefficient (H). Hemolytic activity at 10% (HC10) was then determined by the following equation: […]
The hemolytic activity of select peptoids was determined as done previously (Green et al. ACS medicinal chemistry letters 12 9, 1470-1477 (2021); Middleton et al. Bioorganic & medicinal chemistry letters 28 22, 3514-3519 (2018)). Selected peptoids were prepared in 2-fold serial dilutions in PBS at the desired concentrations. Human red blood cells (hRBCs, 9 mL) were centrifuged at 1000 rpm for 10 minutes, and the supernatant was removed and discarded. A 10 mL aliquot of PBS was used to resuspend the hRBCs which were centrifuged again at 1000 rpm for 10 minutes. This PBS wash was completed two more times for a total of three washes. A 9 mL aliquot of PBS was added to the hRBCs, and 100 μL of cell solution was added to individual wells of a 96-well plate. Peptoid solutions (11.1 μL) were added to the appropriate wells in triplicate. A vehicle control of PBS and positive control of 1% Triton X-100 were added to wells in triplicate.
The plate was incubated at 37° C. for 1 hour and centrifuged at 1000 rpm for 10 minutes. For each well, 5 μL of supernatant was transferred to 95 μL of PBS in a new 96-well plate. The absorbance at 405 nm was measured using a SpectraMax M5 Plate Reader, and the percent hemolysis was calculated as follows: […]

C. neoformans = type: cell-based, Cryptococcus neoformans; settings: 72 h
Protocol: The minimum inhibitory concentration (MIC) of peptoids against fungal pathogens C. albicans and C. neoformans was determined following CLSI guidelines (CLSI. Reference method for broth dilution antifungal susceptibility testing of yeasts; approved standard-third edition; CLSI document M27-A3. (Clinical and Laboratory Standards Institute, 2008). […] This inoculant was diluted 1:100 into RPMI-MOPS and then further diluted 1:20 into RPMI-MOPS. 198 μL of inoculant was seeded into each well of a 96 well black-walled plate. 2-fold serial dilutions of 100× peptoid solutions were prepared in water and 2 μL of peptoid were added to each well in triplicate. […] MIC was defined as the lowest concentration of compound preventing fungal growth. This assay was repeated 3 times on separate days with each compound. […] The addition of 0.1 mL cell solution to 9.9 mL of RPMI-MOPS produced a 1:100 cell solution. After vortexing, 0.5 mL of the […] was added to 9.5 mL RPMI-MOPS to produce a 1:20 cell solution. 198 μL of the 1:20 solution was added to the wells of an opaque 96-well plate, apart from the wells designated for the medial control. […] Amphotericin B was used as a positive control, and sterile water was used for the vehicle control. The plates were incubated for 72 hours at 35° C. After incubation, the concentration of compound resulting in no visual growth was recorded as the MIC. All assays performed in biological triplicate on different days.

C. albicans = assay: Peptoid library agar diffusion (PLAD) screening of library RGL8; type: cell-based, Candida albicans; settings: RPMI-MOPS media
Source text: Antimicrobial peptoids of the present disclosure may have biological activity. Biological activity can be antimicrobial activity against a microbe, e.g., a fungal pathogen, a bacterial pathogen, or a combination thereof. A peptoid library agar diffusion (PLAD) assay may be used to identify peptoids that have antimicrobial activity (Fischer et al., ACS Comb. Sci. 18, 287-291 (2016); Corson et al., ACS Med. Chem. Lett. 7, 1139-1144 (2016); Turkett et al., ACS Comb. Sci. 18, 287-291 (2016)). The PLAD assay uses a PLAD chemical linker. […] Beads containing the PLAD linked peptoids are embedded in an agar medium where the agar medium is inoculated with the microbe of interest. The β-strand peptoid is released by a reducing reagent. The reducing agent cleaves a disulfide within the PLAD linker, allowing the β-strand peptoid to interact with microbes around the bead. If the released peptoid has antimicrobial activity, a zone of inhibited growth will be present. The α-strand peptoid remains attached to the bead during the screening process. […] The chemical cleavage of the α-strand peptoid is be accomplished at a C-terminal methionine of the PLAD linker using cyanogen bromide. […] The PLAD assay may be adapted to screen a peptoid of interest against different types of microbes of interest through slight modifications of the assay parameters. […]

| Compound | CC50 at 72 h [1] [µg/mL] | hRBC HC10 [2] [µg/mL] | C. neoformans MIC (C. neoformans) [µg/mL] | PLAD screening result (zone of inhibited fungal growth) (C. albicans) |
| --- | --- | --- | --- | --- |
| CCCCCCCCCCCCCNCC(=O)N(CC(=O)N(CCCCN)CC(=O)N(CCN)CC(=O)N(CC(N)=O)[C@@H](C)c1ccccc1)[C@@H](C)c1ccccc1 [Compound 16] (H-[N(tridecyl)Gly][Nspe][Nlys][Gly(N-2-aminoethyl)][Nspe]-NH2) | 167 ± 104 (≈ 207 µM) | 38 ± 11 | 1.56 to 3.13 | – |
| CCCCCCCCCCCCCNCC(=O)N(CC(=O)N(CCCCN)CC(=O)N(CCN)CC(=O)N(CC(N)=O)Cc1ccc(F)cc1)Cc1ccc(F)cc1 [Compound 17] (H-[N(tridecyl)Gly][N(4-F-Bzl)Gly][Nlys][Gly(N-2-aminoethyl)][N(4-F-Bzl)Gly]-NH2) | 150 ± 7 (≈ 184 µM) | 59 ± 22 | 1.56 to 3.13 | – |
| Ntri-Ncha-Ncha-Ncha-Ncha | – | – | – | hit |
